This is an account of results in ChEMBL document CHEMBL3137547, “Open Source Malaria Deposition 2. http://malaria.ourexperiment.org”.

Molecules are shown by their SMILES.

For the assay, the system named is Plasmodium falciparum. The assay can be described thus: OSM: Erythrocyte assay. NF54 with 3H-Hypoxanthine at 72hr time point. The assay is classed as functional, organism-based.
Usually EC50 stands for the concentration giving half of the maximal effect. A high value points to lower potency in that assay. The molecule `[O-][n+]1cc(OCCc2ccc(F)c(F)c2)n2c(-c3ccc(OC(F)F)cc3)nnc2c1` had an EC50 of 4.01 µM. `Fc1ccc(CCOc2cnc(Cl)c3nnc(-c4ccc(OC(F)F)cc4)n23)cc1F` returned a concentration giving a half-maximal response (EC50) of 0.16 µM.

As for `OCCc1cncc2nnc(-c3ccc(OC(F)F)cc3)n12`, a half-maximal effect (EC50) was put at 10 µM. The same measure for `OCCC1CNCc2nnc(-c3ccc(OC(F)F)cc3)n21` (stereo unspecified): 8.37 µM. Molecule `Fc1ccc(N2CC(Oc3cncc4nnc(-c5ccc(OC(F)F)cc5)n34)C2)cc1F` yielded an EC50 of 0.43 µM. `FC(F)Oc1ccc(-c2nnc3cncc(N4CCC(c5ccccc5)C4)n23)cc1` (stereo unspecified) had an EC50 of 2 µM. Compared with the last molecule, the EC50 is about 4.7-fold higher. The same measure for `O=C(NCc1cccc(Cl)c1)c1cncc2nnc(-c3ccc(OC(F)F)cc3)n12`: 0.25 µM; for `Fc1ccc(CCOc2cncc3nnc(C4CCOCC4)n23)cc1F`: 10 µM; for `FC(F)Oc1ccc(-c2nnc3n2CCNC3)cc1`: 10 µM. As to `CC(=O)N1CCC(c2nnc3cncc(OCCc4ccc(F)c(F)c4)n23)CC1`, the EC50 turned out to be 10 µM. As for `NCC(=O)N1CCn2c(nnc2-c2ccc(OC(F)F)cc2)C1`, the EC50 came out at 10 µM. In other words, the double-digit micromolar range.

On to `O=C(c1cncc2nnc(-c3ccc(OC(F)F)cc3)n12)N1Cc2ccccc2C1`, for which the midpoint of the response, the EC50, lay at 10 µM. `O=C(NCc1ccc(Cl)cc1)c1cncc2nnc(-c3ccc(OC(F)F)cc3)n12` had an EC50 of 1.34 µM. The molecule `O=C(NCc1ccccc1Cl)c1cncc2nnc(-c3ccc(OC(F)F)cc3)n12` gave an EC50 of 0.38 µM. Next, `O=C(NCC1CCOCC1)c1cncc2nnc(-c3ccc(OC(F)F)cc3)n12`: 10 µM; `Fc1ccc(CCOc2cncc3nnc(Nc4ccc(F)c(F)c4)n23)cc1F`: 0.85 µM; `Fc1ccc(OC2CN(c3cncc4nnc(-c5ccc(OC(F)F)cc5)n34)C2)cc1F`: 4.96 µM. `Fc1ccc(CCOc2cncc3nnc(N4CCCCC4)n23)cc1F` returned an EC50 of 2.63 µM. Molecule `O=C(c1cncc2nnc(-c3ccc(OC(F)F)cc3)n12)N1CCN(c2ccccn2)CC1` gave a 50% effective concentration (EC50) of 10 µM. As for `O=C(NCCN1CCOCC1)c1cncc2nnc(-c3ccc(OC(F)F)cc3)n12`, a half-maximal response (EC50) required 10 µM.

As to `O=C(c1cncc2nnc(-c3ccc(OC(F)F)cc3)n12)N1CCOCC1`, the response was half-maximal at 10 µM (EC50). Next, `C[C@H](NC(=O)c1cncc2nnc(-c3ccc(OC(F)F)cc3)n12)c1ccccc1`: 1.6 µM; `O=C(c1cncc2nnc(-c3ccc(OC(F)F)cc3)n12)N1CCCC1`: 10 µM. The same measure for `CS(=O)(=O)N1CCN(C(=O)c2cncc3nnc(-c4ccc(OC(F)F)cc4)n23)CC1`: 10 µM; for `C[C@@H](NC(=O)c1cncc2nnc(-c3ccc(OC(F)F)cc3)n12)c1ccccc1`: 1.36 µM. `O=c1[nH]cc(OCCc2ccc(F)c(F)c2)n2c(-c3ccc(OC(F)F)cc3)nnc12` came in with an EC50 of 4.13 µM. As for `O=C(Nc1ccccn1)c1cncc2nnc(-c3ccc(OC(F)F)cc3)n12`, the response was half-maximal at 10 µM (EC50). Next, `O=C(NCCc1ccccc1)c1cncc2nnc(-c3ccc(OC(F)F)cc3)n12`: 3.17 µM; `Fc1ccc(CCOc2cncc3nnc(N4Cc5ccccc5C4)n23)cc1F`: 0.47 µM. In turn, `CCN(CC)c1ncc(OCCc2ccc(F)c(F)c2)n2c(-c3ccc(OC(F)F)cc3)nnc12` registered an EC50 of 6.86 µM. Molecule `O=S(=O)(Cc1ccc(C(F)(F)F)cc1)Nc1cncc2nnc(-c3ccc(OC(F)F)cc3)n12` showed an EC50 of 10 µM. The same measure for `O=C(c1cncc2nnc(-c3ccc(OC(F)F)cc3)n12)N1CCCC1c1ccccc1` (stereo unspecified): 3.56 µM; for `CN(Cc1cccc(Cl)c1)C(=O)c1cncc2nnc(-c3ccc(OC(F)F)cc3)n12`: 1.06 µM; for `FC(F)Oc1ccc(-c2nnc3cncc(CCCc4ccccc4)n23)cc1`: 0.28 µM. In turn, `FC(F)Oc1ccc(-c2nnc3cncc(CCN4CCOCC4)n23)cc1` showed an EC50 of 10 µM. This EC50 is about 36-fold higher than that of the molecule before.

With `FC(F)Oc1ccc(-c2nnc3n2C(CCCc2ccccc2)CNC3)cc1` (stereo unspecified), the EC50 was found to be 8.76 µM. `Nc1ncc(OCCc2ccc(F)c(F)c2)n2c(-c3ccc(OC(F)F)cc3)nnc12`: the EC50 was 10 µM. In the case of `FC(F)Oc1ccc(-c2nnc3cncc(CCN4Cc5ccccc5C4)n23)cc1`, the EC50 amounted to 10 µM. Molecule `FC(F)Oc1ccc(-c2nnc3cncc(N4CC(c5ccccc5)C4)n23)cc1` returned an EC50 of 10 µM.

Regarding `Fc1ccc(COCc2cncc3nnc(-c4ccc(OC(F)F)cc4)n23)cc1F`, a half-maximal effect (EC50) was put at 0.36 µM. `Cc1ncc(OCCc2ccc(F)c(F)c2)n2c(-c3ccc(OC(F)F)cc3)nnc12` had an EC50 of 6.92 µM. On to `O=C(Nc1cccc(Cl)c1)c1cncc2nnc(-c3ccc(OC(F)F)cc3)n12`, for which the EC50 stood at 0.18 µM. Molecule `O=C(NCc1ccc(F)c(F)c1)c1cncc2nnc(-c3ccc(OC(F)F)cc3)n12` came in with an EC50 of 0.28 µM. For `O=C(NCc1cncc2nnc(-c3ccc(OC(F)F)cc3)n12)c1cccc(Cl)c1`, the half-maximal effective concentration (EC50) stood at 10 µM. For the molecule `FC(F)Oc1ccc(-c2nnc3cncc(Oc4ccc(Cl)cc4)n23)cc1`, the EC50 was found to be 2.96 µM. The same measure for `CO[C@@H](COc1cncc2nnc(-c3ccc(C#N)cc3)n12)c1ccc(F)c(F)c1`: 0.04 µM; for `Fc1ccc(CCOc2cncc3ncc(-c4ccc(Cl)cc4)n23)cc1F`: 0.11 µM; for `FC(F)Oc1ccc(-c2nnc3cncc(CN4Cc5ccccc5C4)n23)cc1`: 0.11 µM. On to `O=C(Nc1ccc(F)cc1)c1cncc2nnc(-c3ccc(OC(F)F)cc3)n12`, for which the EC50 worked out at 3.74 µM. Molecule `O=C(Nc1ccc(F)c(F)c1)c1cncc2nnc(-c3ccc(OC(F)F)cc3)n12` showed an EC50 of 0.65 µM. As for `Fc1ccc(CCCc2cncc3nnc(-c4ccc(OC(F)F)cc4)n23)cc1F`, the EC50 amounted to 0.32 µM. `O=C(Nc1ccc(Cl)cc1)c1cncc2nnc(-c3ccc(OC(F)F)cc3)n12`: it took 5 µM to reach a half-maximal effect (EC50). This EC50 lies about 16-fold higher than the previous one. Molecule `Fc1ccc2c(c1)CCN2c1nnc2cncc(OCCc3ccc(F)c(F)c3)n12` had an EC50 of 2.05 µM. Next, `Fc1ccc(CCOc2cncc3cnc(-c4ccc(Cl)cc4)n23)cc1F`: 0.83 µM; `CN(C)[C@@H](COc1cncc2nnc(-c3ccc(OC(F)F)cc3)n12)c1ccc(F)c(F)c1`: 0.0441 µM; `Fc1ccc(C2(COc3cncc4nnc(-c5ccc(OC(F)F)cc5)n34)COC2)cc1F`: 0.483 µM. In the case of `N#Cc1ccc(-c2nnc3cncc(OCC(OC(F)F)c4ccc(F)c(F)c4)n23)cc1` (stereo unspecified), the EC50 worked out at 0.0167 µM. The same measure for `FC(F)Oc1ccc(-c2nnc3cncc(Oc4ccc5ccccc5c4)n23)cc1`: 0.115 µM.

`FC(F)Oc1ccc(-c2nnc3cncc(OCC(F)(F)F)n23)cc1` yielded an EC50 of 10 µM. The same measure for `CN[C@@H](COc1cncc2nnc(-c3ccc(OC(F)F)cc3)n12)c1ccc(F)c(F)c1`: 10 µM; for `FC(F)Oc1ccc(-c2nnc3cncc(Oc4ccc(C(F)(F)F)cc4)n23)cc1`: 0.383 µM.

Turning to `FC(F)Oc1ccc(-c2nnc3cncc(Oc4ccc(Cl)c(Cl)c4)n23)cc1`, a half-maximal response (EC50) required 0.455 µM. The molecule `O=C(Nc1ccc(F)c(Cl)c1)c1cncc2nnc(-c3ccc(OC(F)F)cc3)n12` had an EC50 of 0.191 µM. This EC50 lies about 2.4-fold lower than the previous one. Next, `O=C(c1cncc2nnc(-c3ccc(OC(F)F)cc3)n12)N1CCc2cc(F)ccc21`: 10 µM; `FC(F)Oc1ccc(-c2nnc3cncc(Nc4ccc(Cl)c(Cl)c4)n23)cc1`: 9.63 µM; `FC(F)Oc1ccc(-c2nnc3cncc(Oc4cccc(Cl)c4)n23)cc1`: 3.07 µM.

Consider `Fc1ccc(CCOc2cncc3nnc(-c4ccc(C(F)(F)F)nc4)n23)cc1F`, for which a half-maximal response (EC50) required 0.262 µM. This EC50 lies about 12-fold lower than the previous one. Regarding `O=C(Nc1ccnc(C(F)(F)F)c1)c1cncc2nnc(-c3ccc(OC(F)F)cc3)n12`, the EC50 is 0.14 µM. The same measure for `Fc1ccc(CCOc2cn3c(-c4ccc(OC(F)F)cc4)nnc3cn2)cc1F`: 0.0338 µM; for `Fc1ccc(COc2cn3c(-c4ccc(OC(F)F)cc4)nnc3cn2)cc1F`: 0.521 µM; for `OCC(COc1cncc2nnc(-c3ccc(OC(F)F)cc3)n12)c1ccc(F)c(F)c1` (stereo unspecified): 0.0243 µM. `Fc1ccc(CNc2cn3c(-c4ccc(OC(F)F)cc4)nnc3cn2)cc1F` registered an EC50 of 10 µM.

Turning to `Fc1ccc(C(COc2cncc3nnc(-c4ccc(OC(F)F)cc4)n23)N2CCOCC2)cc1F` (stereo unspecified), it took 0.613 µM to reach a half-maximal effect (EC50). Against the preceding molecule, the EC50 is about 16-fold lower. The same measure for `CC(C)(C)c1ccc(Oc2cncc3nnc(-c4ccc(OC(F)F)cc4)n23)cc1`: 0.738 µM. Regarding `FC(F)Oc1ccc(-c2nnc3cncc(Oc4ccc5c(c4)CCCC5)n23)cc1`, it took 2.58 µM to reach a half-maximal effect (EC50). `FC(F)Oc1ccc(-c2nnc3cncc(Oc4ccc(Cl)c(C(F)(F)F)c4)n23)cc1` registered an EC50 of 0.597 µM. Molecule `N[C@@H](COc1cncc2nnc(-c3ccc(OC(F)F)cc3)n12)c1ccc(F)c(F)c1` registered an EC50 of 0.279 µM. Regarding `OC[C@H](Nc1cncc2nnc(-c3ccc(OC(F)F)cc3)n12)c1ccc(F)c(F)c1`, a half-maximal effect (EC50) was put at 0.57 µM. As for `Fc1ccc(-c2cnn(-c3cncc4nnc(-c5ccc(OC(F)F)cc5)n34)c2)cc1F`, the EC50 was 6.72 µM. The same measure for `O=C(Nc1ccc(F)cc1Cl)c1cncc2nnc(-c3ccc(OC(F)F)cc3)n12`: 5.58 µM; for `Fc1ccc(Nc2cn3c(-c4ccc(OC(F)F)cc4)nnc3cn2)cc1F`: 10 µM. As for `O=C(NCc1cc(Cl)ccc1Cl)c1cncc2nnc(-c3ccc(OC(F)F)cc3)n12`, the midpoint of the response, the EC50, lay at 0.332 µM. This EC50 is about 30-fold lower than that of the molecule before. Molecule `O=C(NCc1cccc(C(F)(F)F)c1Cl)c1cncc2nnc(-c3ccc(OC(F)F)cc3)n12` had an EC50 of 0.309 µM. The molecule `Fc1ccc(Cc2nccn2-c2cncc3nnc(-c4ccc(OC(F)F)cc4)n23)cc1F` displayed an EC50 of 10 µM. Consider `Cc1nn(-c2ccc(F)cc2)c(C)c1-c1nnc2cncc(OCC(F)(F)F)n12`, for which the response was half-maximal at 10 µM (EC50). This counts as double-digit micromolar. The same measure for `FC(F)Oc1ccc(-c2nnc3cncc(Oc4ccc(S(F)(F)(F)(F)F)cc4)n23)cc1`: 0.263 µM; for `Fc1ccc(Oc2cn3c(-c4ccc(OC(F)F)cc4)nnc3cn2)cc1F`: 3.45 µM; for `Fc1ccc(CCNc2cn3c(-c4ccc(OC(F)F)cc4)nnc3cn2)cc1`: 10 µM.

In the case of `Cc1nn(-c2ccc(F)cc2)c(C)c1-c1nnc2cncc(Oc3ccc(Cl)c(Cl)c3)n12`, the EC50 came to 10 µM.

Regarding `Fc1ccc([C@H]2[C@@H](Oc3cncc4nnc(-c5ccc(OC(F)F)cc5)n34)CN2C2CC2)cc1F`, the EC50 worked out at 0.61 µM. Against the preceding molecule, the EC50 is about 16-fold lower. The same measure for `O=C1[C@H](Oc2cncc3nnc(-c4ccc(OC(F)F)cc4)n23)[C@H](c2ccc(F)c(F)c2)N1C1CC1`: 1.12 µM.
